Data as given in the NIST ThermoML archive (doi:10.1016/j.jct.2013.10.031).

Conditions: for vapor or sublimation pressure: Liquid, Closed cell (Static) method; for mass density: Gas, Burnett expansion method

FCC(F)(F)F [1,1,1,2-tetrafluoroethane]
Conditions	vapor or sublimation pressure [kPa]
252.12 K	127.2
256.18 K	151.4
260.19 K	178.5
264.2 K	209.6
268.21 K	244.3
272.14 K	283
276.09 K	326.1
280.13 K	374.9
284.1 K	428.7
288.09 K	487
292.13 K	554.1
296.32 K	630.3
300.17 K	707.1
304.12 K	792.4
308.12 K	887
312.19 K	991.8
316.2 K	1103.5
320.09 K	1220.6

N#N [nitrogen]
mass density [kg/m3]
Conditions	634.95 kPa	845.67 kPa	1127.1 kPa	1502.9 kPa	2004.5 kPa
322.97 K	–	8.818	11.749	–	20.889
322.98 K	6.619	–	–	15.668	–

CCC [propane]
Conditions	vapor or sublimation pressure [kPa]
252.1 K	236
256.21 K	273.3
260.1 K	311.1
264.21 K	358.7
268.09 K	406
272.13 K	460.2
276.14 K	519.7
280.21 K	585.8
284.09 K	653.2
288.1 K	731.4
292.1 K	814.2
296.21 K	906.2
300.18 K	1001.8
304.19 K	1107.5
308.18 K	1219.8
312.17 K	1339.6
316.2 K	1468.9
320.19 K	1606.7
